From patent publication US12122816B2, “Long acting peptide tyrosine tyrosine (PYY) analogs and methods of use” (Intarcia Therapeutics, Inc., priority 2020, dated 2024)
Starred links: 1 amine or outer side, 2 acyl side, 3 side chain; linkers in the order of their positions; H or OH if unused. Residues, ends and D or L forms follow the SMILES beside them. Groups on a side chain read outwards from the residue. *: point of attachment. C20 diacid = O=C(O)CCCCCCCCCCCCCCCCCCC(=O)*; γGlu = O=C(O)[C@H](CCC(=O)[*:2])N[*:1]

Assays:
[1] = target: T1, human Y2 receptor (Homo sapiens, UniProt P49146); assay: NPY receptor functional assay (cAMP, HEK-CNG cells, ACTOne membrane potential dye); format: cell-based; settings: NPY2R pEC50, HEK-CNG cells; standard PYY(3-36); species (human or rat) not given
T1 sequence (P49146 1-381): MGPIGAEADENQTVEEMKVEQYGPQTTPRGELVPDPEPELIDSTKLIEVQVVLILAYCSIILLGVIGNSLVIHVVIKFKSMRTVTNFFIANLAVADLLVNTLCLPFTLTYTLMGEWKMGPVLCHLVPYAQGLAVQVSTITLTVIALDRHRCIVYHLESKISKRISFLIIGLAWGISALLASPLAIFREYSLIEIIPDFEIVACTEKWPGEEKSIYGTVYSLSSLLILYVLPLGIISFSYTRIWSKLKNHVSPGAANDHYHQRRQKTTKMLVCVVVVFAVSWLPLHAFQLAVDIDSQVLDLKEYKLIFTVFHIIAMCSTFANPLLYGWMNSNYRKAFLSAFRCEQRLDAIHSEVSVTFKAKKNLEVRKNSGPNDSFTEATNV
Method in brief: (§1)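 HEK-CNG cells stably expressing each human receptor; peptides added in triplicate for 50 minutes at room temperature, with agonism read as decreased isoproterenol-induced membrane potential dye signal (final/initial read).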

[2] = target: T2, human Y5 receptor (Homo sapiens, UniProt Q15761); assay: as above; format: cell-based; settings: NPY5R pEC50, HEK-CNG cells; standard NPY; species (human or rat) not given
T2 sequence (Q15761 1-445): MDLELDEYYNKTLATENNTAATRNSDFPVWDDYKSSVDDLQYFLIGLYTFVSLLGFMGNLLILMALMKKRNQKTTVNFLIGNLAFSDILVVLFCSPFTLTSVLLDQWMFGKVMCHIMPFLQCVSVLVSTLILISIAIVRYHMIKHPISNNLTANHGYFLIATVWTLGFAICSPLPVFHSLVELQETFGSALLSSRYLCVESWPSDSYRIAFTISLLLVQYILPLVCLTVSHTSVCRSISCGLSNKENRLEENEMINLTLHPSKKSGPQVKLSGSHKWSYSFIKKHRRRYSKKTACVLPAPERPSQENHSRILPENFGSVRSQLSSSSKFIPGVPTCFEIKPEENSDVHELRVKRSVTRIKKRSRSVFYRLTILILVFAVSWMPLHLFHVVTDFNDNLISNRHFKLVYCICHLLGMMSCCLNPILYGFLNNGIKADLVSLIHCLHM
Method in brief: as §1

[3] = In vitro metabolic stability in kidney brush border membranes (kBBM); format: in vitro ADME; settings: pH 7.4, human kBBM 50 mcg protein/mL, 1 mcM peptide, 37° C., read-out: hkBBM t½ (converted)
Experimental: In vitro incubations in kidney brush border membrane (kBBM) preparations were used to characterize the ability of peptides to resist degradation by proteases and peptidases in the systemic circulation. kBBM were selected because they contain a high concentration of a diverse set of proteases and peptidases, many of which are present throughout the body.
Brush border membranes from rat and human kidney tissue were prepared via centrifugation and stored at −70° C. Thawed stocks of rat or human kBBM were diluted to the appropriate concentration in 25 mM HEPES buffer (pH 7.4) containing 1% casein and aliquoted into a 96-well plate. The kBBM solutions were pre-warmed for 10 minutes at 37° C. […] The final concentration of kBBM in each incubation was 50 mcg protein/mL. Reactions were maintained at 37° C. in a shaking water bath. […] Quenched samples were centrifuged at 2178×g for 10 min and then a portion of the supernatants were transferred to a clean 96-well plate and diluted 1:1 with water. Samples were analyzed by UPLC-MS/MS.

[4] = In vitro stability in subcutaneous (SC) tissue homogenates; format: in vitro ADME; settings: subcutaneous tissue homogenate, pH 7.4; human SC tissue homogenate 1.0 mg protein/mL, 10 mcM peptide, 37° C.; read-out: (H)SC tissue stability t½ (converted)
Experimental: In vitro incubations in subcutaneous (SC) tissue homogenates were used to characterize the ability of peptides to resist pre-systemic degradation by proteases and peptidases after SC administration. […] Peptides with high SC bioavailability are stable in this assay, while peptides with low SC bioavailability are unstable in this assay.
Human SC tissue was homogenized in cold 25 mM HEPES buffer (pH 7.4, 10-fold volume based on sample weight), and then filtered through a double layer of cheesecloth. The filtrates were aliquoted, flash frozen on a methanol/dry ice bath and stored at −80° C. The protein concentration of each pooled batch was determined using the BCA protein assay. Thawed stocks of human SC tissue homogenates were diluted to 1.0 mg protein/mL in 25 mM HEPES buffer (pH 7.4) and aliquoted into a 96-well plate. The diluted SC homogenates were pre-warmed for 10 minutes at 37° C. […] Reactions were maintained at 37° C. in a shaking water bath. […] Quenched samples were centrifuged at 2178×g for 10 min and then a portion of the supernatants were transferred to a clean 96-well plate and diluted 1:10 with water. Samples were analyzed by UPLC-MS/MS.

Molecule CC(C)C[C@H](NC(=O)[C@H](CC(=O)O)NC(=O)[C@H](CCCCN)NC(=O)[C@H](Cc1ccc(O)cc1)NC(=O)[C@H](Cc1ccc(O)cc1)NC(=O)[C@H](CCCNC(=N)N)NC(=O)[C@H](CC(N)=O)NC(=O)[C@H](Cc1c[nH]c2ccccc12)NC(=O)[C@H](CCC(=O)O)NC(=O)[C@H](CCCCN)NC(=O)[C@@H]1CCCN1C(=O)[C@H](CO)NC(=O)[C@H](C)NC(=O)[C@H](CC(=O)O)NC(=O)[C@H](CCCCNC(=O)CC[C@H](NC(=O)CC[C@H](NC(=O)CCCCCCCCCCCCCCCCCCC(=O)O)C(=O)O)C(=O)O)NC(=O)CNC(=O)[C@@H]1CCCN1C(=O)[C@H](CCCCN)NC(=O)[C@H](CCC(=O)O)NC(=O)[C@@H]1CCCN1C(=O)[C@H](CCCCN)NC(=O)[C@@H]1CCCN1)C(=O)N[C@@H](CCCNC(=N)N)C(=O)N[C@@H](Cc1c[nH]cn1)C(=O)N[C@@H](Cc1ccc(O)cc1)C(=O)N[C@@H](CC(C)C)C(=O)N[C@@H](CC(N)=O)C(=O)N[C@@H](Cc1c[nH]c2ccccc12)C(=O)N[C@@H](CC(C)C)C(=O)N[C@H](C(=O)N[C@@H](CCCNC(=N)N)C(=O)N[C@@H](CCC(N)=O)C(=O)N[C@@H](CCCNC(=N)N)C(=O)N[C@@H](Cc1ccccc1)C(N)=O)[C@@H](C)O [Compound A27] (H-PKPEKPGK([γGlu-γGlu-C20 diacid])DASPKEWNRYYKDLRHYLNWLTRQRF-NH2; N-terminus assumed) has an EC50 [1] of 0.02 nM, an EC50 [2] of 1.26 nM and a half-life at 1 mcM [3] of 10 h. It also gave a half-life at 10 mcM [4] of 0.2 h.

Molecule CC(C)C[C@H](NC(=O)[C@H](CC(=O)O)NC(=O)[C@H](CCCCN)NC(=O)[C@H](Cc1ccc(O)cc1)NC(=O)[C@H](Cc1ccc(O)cc1)NC(=O)[C@H](CCCNC(=N)N)NC(=O)[C@H](CC(=O)O)NC(=O)[C@H](Cc1c[nH]c2ccccc12)NC(=O)[C@H](CCC(=O)O)NC(=O)[C@H](CCCCN)NC(=O)[C@@H]1CCCN1C(=O)[C@H](CO)NC(=O)[C@H](C)NC(=O)[C@H](CC(=O)O)NC(=O)[C@H](CCC(=O)O)NC(=O)CNC(=O)[C@@H]1CCCN1C(=O)[C@H](CCCCNC(=O)CC[C@H](NC(=O)CC[C@H](NC(=O)CCCCCCCCCCCCCCCCC(=O)O)C(=O)O)C(=O)O)NC(=O)[C@H](CCC(=O)O)NC(=O)[C@@H]1CCCN1C(=O)[C@H](CCCCN)NC(=O)[C@@H]1CCCN1)C(=O)N[C@@H](CCCNC(=N)N)C(=O)N[C@@H](Cc1c[nH]cn1)C(=O)N[C@@H](Cc1ccc(O)cc1)C(=O)N[C@@H](CC(C)C)C(=O)N[C@@H](CC(N)=O)C(=O)N[C@@H](Cc1c[nH]c2ccccc12)C(=O)N[C@@H](CC(C)C)C(=O)N[C@H](C(=O)N[C@@H](CCCNC(=N)N)C(=O)N[C@@H](CCC(N)=O)C(=O)N[C@@H](CCCNC(=N)N)C(=O)N[C@@H](Cc1ccccc1)C(N)=O)[C@@H](C)O [Compound A35] has an EC50 [1] of 0.0316 nM, an EC50 [2] of 0.794 nM and a half-life at 1 mcM [3] of 5.6 h. The half-life at 10 mcM [4] was 1.3 h.
